Read-outs that look alike come from different tables or passages of the source.
Target: T1, hERG potassium channel (Homo sapiens, UniProt Q12809)
T1 construct: host or cells: HEK 293 T-REx
Experiment: Whole cell patch clamp, HEK 293 T-REx HERG cells
Format: cell-based
Text: For this experiment HEK 293 T-REx HERG cells (#23) were used. This cell line made by IonGate is characterized by the inducible expression of the hERG gene. The T-REx™ System (Invitrogen, Karlsruhe, Germany) is a tetracycline-regulated mammalian expression system that uses regulatory elements from the E. coli Tn10-encoded tetracycline (Tet) resistance operon. In the absence of Tet the expression is repressed. Tetracycline regulation in the T-REx™ System is based on the binding of tetracycline to the Tet repressor and derepression of the promoter controlling expression of the hERG gene. Addition of Tet to the cell culture media results in expression of the hERG potassium channel.
To construct the HEK 293 T-REx HERG cell line, the hERG gene was ligated into the inducible expression vector pcDNA4/TO (→pc4TO-HERG) and transfected into HEK 293 T-REx cells (this cell line stably expresses the Tet repressor and was purchased at Invitrogen). Stable cell clones were isolated after selection with Blasticidin (5 μg/ml) and Zeocin™ (300 μg/ml). The clones were electrophysiological characterized after induction with 1 μg/ml Tet.
Experiments were performed using the patch clamp set-up. Technical equipment needed for manipulation of the cells was placed on a vibration-isolated table and shielded with a Faraday cage to minimize electrical noise. The amplifier and control system were placed in a rack outside the Faraday cage. The system consisted of an EPC9 or EPC10 patch clamp amplifier (HEKA, Lambrecht, Germany), and the perfusion system DADVC8 (ALA Scientific, New York, USA) controlled by the Pulse software package (HEKA, Lambrecht, Germany) installed on a personal computer.
The cells used for this experiment were kept in continuous culture under standard conditions (37° C., air supplemented with 5% CO2). The HEK 293 T-REx HERG cells were kept in minimal essential medium (MEM) supplemented with 100 U/ml Penicillin, 100 μg/ml Streptomycin, 10% fetal calf serum (FCS), 1% non-essential amino acids (NEAA), 2.5 μg/ml amphotericin, 300 μg/ml Zeocin™ and 5 μg/ml Blasticidin. Cells were passed every 3-4 days after detachment using a Trypsin solution. The quality of the cultured cells was guaranteed by vitality and contamination tests. The culture of the cells was performed as described in protocol D described above.
At least 18 hours prior to electrophysiological experiments the cells were detached by application of iced PBS (phosphate buffered saline) or Trypsin and replated on cover slips. 1 μg/ml Tet was added to the cells to induce hERG expression.
Activity of the cardiac hERG channel was investigated using the patch clamp technique in its whole cell mode. This means that the current needed for clamping the whole cell expressing the K^+-channel protein to a specific potential was measured. The pipettes used for patch clamping were made of borosilicate glass. Measurements were performed at room temperature (20-25° C.). In each experiment (i.e. each cell) only one concentration of the compound was investigated no cumulative dosages were performed. Each cell acted as its own control. […]
After the whole cell configuration was established a series of pulses was applied to check for hERG expression and to optimize amplifier settings. However, only the following measurements were used for data analysis: 15 test pulses (FIG. 4a and Table 6a) were applied at 0.1 Hz (series 1) under constant superfusion with bath solution. The protocol was initiated by a leak test at −40 mV (50 ms). […] The maximum hERG tail current amplitude was measured at −40 mV (tail current test, 1.5 sec.). Only cells generating tail current amplitudes between 300 pA and 10 nA were used for the experimental procedure.
After successful characterization of the current another 10 test pulses were applied at 0.1 Hz while the cell was superfused with bath solution (series 2). […]

[1] = estimated by Hill fit with hill=1, ymax=100, tested at 10 μM, n=2, read-out: IC50 (μM) hERG
[2] = percent value, test concentration not given
[3] = patch clamp, read-out: hERG IC50

T1 sequence (Q12809 whole entry): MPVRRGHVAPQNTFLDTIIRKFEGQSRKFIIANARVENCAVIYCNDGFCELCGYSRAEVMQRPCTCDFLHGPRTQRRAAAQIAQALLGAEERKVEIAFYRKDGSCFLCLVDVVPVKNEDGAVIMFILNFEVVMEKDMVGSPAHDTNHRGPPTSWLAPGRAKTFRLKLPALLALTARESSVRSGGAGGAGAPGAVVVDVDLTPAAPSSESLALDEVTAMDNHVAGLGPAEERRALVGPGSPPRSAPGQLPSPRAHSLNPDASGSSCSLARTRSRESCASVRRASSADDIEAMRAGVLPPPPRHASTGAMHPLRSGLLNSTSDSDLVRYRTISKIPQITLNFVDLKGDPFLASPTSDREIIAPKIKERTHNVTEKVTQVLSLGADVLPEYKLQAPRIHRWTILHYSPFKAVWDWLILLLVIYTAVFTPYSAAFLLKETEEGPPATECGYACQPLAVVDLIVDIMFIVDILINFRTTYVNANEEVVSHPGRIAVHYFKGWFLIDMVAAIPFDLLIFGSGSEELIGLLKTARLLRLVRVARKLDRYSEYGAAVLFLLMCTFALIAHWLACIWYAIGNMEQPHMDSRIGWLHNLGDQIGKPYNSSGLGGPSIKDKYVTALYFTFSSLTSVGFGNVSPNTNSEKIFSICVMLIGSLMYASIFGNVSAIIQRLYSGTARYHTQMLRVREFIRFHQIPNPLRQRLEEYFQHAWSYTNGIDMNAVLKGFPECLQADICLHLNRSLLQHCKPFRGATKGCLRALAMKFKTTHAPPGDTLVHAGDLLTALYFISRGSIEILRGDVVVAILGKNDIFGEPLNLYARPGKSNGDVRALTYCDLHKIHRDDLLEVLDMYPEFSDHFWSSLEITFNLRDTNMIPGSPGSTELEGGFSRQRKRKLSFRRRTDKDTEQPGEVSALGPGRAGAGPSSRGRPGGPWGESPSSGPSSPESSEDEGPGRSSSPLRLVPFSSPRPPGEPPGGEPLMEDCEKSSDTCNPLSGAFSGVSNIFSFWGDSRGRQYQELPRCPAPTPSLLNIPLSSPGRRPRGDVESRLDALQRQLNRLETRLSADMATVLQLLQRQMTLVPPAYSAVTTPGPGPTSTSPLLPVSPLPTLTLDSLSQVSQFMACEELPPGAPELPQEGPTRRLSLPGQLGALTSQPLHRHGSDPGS

Compound | IC50 [1] [µM] | hERG [2] [%] | other results
COc1ccccc1Nc1nc(C)c(C(=O)N[C@@H]2CCC[C@H]2OCc2ccccc2)s1 [Compound 31, 2-(2-methoxy-phenylamino)-4-methyl-thiazole-5-carboxylic acid (1R,2R)-2-(benzyloxycyclopent-1-yl) amide] | 25.3 |  | 
COc1ccccc1Nc1nc(C)c(C(=O)NCc2ccc(C(C)(C)C)cc2)s1 [Compound 106, 2-(2-methoxy-phenylamino)-4-methyl-thiazole-5-carboxylic acid 4-tert-butyl-benzylamide] |  | 31 | 
COc1ccccc1Nc1ccc(C(=O)N[C@H]2CCC[C@@H]2OCc2ccccc2)s1 [Compound 75, 2-(2-methoxy-phenylamino)-thiophene-5-carboxylic acid ((1S,2S)-2-benzyloxycyclopent-1-yl) amide] |  | 76 | 
Cc1nc(Nc2cccc3cccnc23)sc1C(=O)N[C@H]1CCC[C@@H]1OCc1ccccc1 [Compound 94, 4-methyl-2-(quinolin-8-ylamino)-thiazole-5-carboxylic acid ((1S,2S)-2-benzyloxycyclopent-1-yl) amide] |  | 69 | 
COc1cccc([C@@H](C)NC(=O)c2sc(Nc3cc(Cl)ccc3OC)nc2C)c1 [Compound 34] | 8.73 |  | 
COc1ccccc1Nc1nc(C)c(C(=O)N[C@H]2CCC[C@@H]2OCc2ccccc2)s1 [Compound 68, 2-(2-methoxy-phenylamino)-4-methyl-thiazole-5-carboxylic acid (1S,2S)-2-(benzyloxycyclopent-1-yl) amide] | 7.95 |  | 
COc1ccccc1Nc1nc(C)c(C(=O)NCc2ccc(N(C)C)cc2)s1 [Compound 105, 2-(2-methoxy-phenylamino)-4-methyl-thiazole-5-carboxylic acid 4-dimethylamino-benzylamide] |  | 67 | 
Cc1nc(Nc2ccc(F)cc2)sc1C(=O)N[C@H](C)c1ccc2ccccc2c1 [Compound 16, 2-(4-fluoro-phenylamino)-4-methyl-thiazole-5-carboxylic acid (R)-1-(naphthalen-2-yl)ethyl amide] | 28 |  | 
2-(4-bromo-phenylamino)-4-methyl-thiazole-5-carboxylic acid 1,2,3,4-tetrahydroisoquinolinamide [Compound 66] | 9.88 |  | IC50 [3]: 9.88 µM
Cc1nc(Nc2ccc(Br)cc2)sc1C(=O)N[C@@H](C)c1ccc2ccccc2c1 [Compound 18, 2-(4-bromo-phenylamino)-4-methyl-thiazole-5-carboxylic acid (S)-1-(naphthalen-2-yl)ethyl amide] | 26.5 |  | 
Cc1nc(Nc2ccc(Cl)cc2)sc1C(=O)N[C@H](C)c1ccc2ccccc2c1 [Compound 52, 2-(4-chloro-phenylamino)-4-methyl-thiazole-5-carboxylic acid (R)-1-(2-naphtalen-2-yl-ethyl)-amide] | 24.2 |  | IC50 [3]: 24.2 µM
COc1ccccc1Nc1nc(C)c(C(=O)NCc2ccc(Br)cc2)s1 [Compound 108, 2-(2-methoxy-phenylamino)-4-methyl-thiazole-5-carboxylic acid 4-bromo-benzylamide] |  | 19 | 
Cc1nc(Nc2ccc3c(c2)OCCO3)sc1C(=O)N[C@H]1CCC[C@@H]1OCc1ccccc1 [Compound 95] |  | 76 | 
Cc1nc(Sc2ccccc2)sc1C(=O)N[C@H]1CCC[C@@H]1OCc1ccccc1 [Compound 81, 4-methyl-2-phenylsulfanyl-thiazole-5-carboxylic acid ((1S,2S)-2-benzyloxycyclopent-1-yl) amide] |  | 88 | 
Cc1nc(Nc2ccc(Cl)cc2)sc1C(=O)N[C@@H](C)c1ccc2ccccc2c1 [Compound 54, 2-(4-chloro-phenylamino)-4-methyl-thiazole-5-carboxylic acid (S)-1-(2-naphtalen-2-yl-ethyl)-amide] | 15.8 |  | IC50 [3]: 15.8 µM
COc1ccccc1Nc1nc(C)c(C(=O)NCc2c(C)cccc2Cl)s1 [Compound 98, 2-(2-methoxy-phenylamino)-4-methyl-thiazole-5-carboxylic acid 2-chloro-6-methyl-benzylamide] |  | 38 | 
COc1ccc(OC)c(Nc2nc(C)c(C(=O)N[C@@H]3CCC[C@H]3OCc3ccccc3)s2)c1 [Compound 33, 2-(2,5-dimethoxyphenylamino)-4-methylthiazole-5-carboxylic acid (1R,2R)-2-(benzyloxycyclopent-1-yl) amide] | 33.5 |  | 
Cc1nc(NC(=O)c2ccc(C(C)(C)C)cc2)sc1C(=O)N[C@H]1CCC[C@@H]1OCc1ccccc1 [Compound 180, 2-(4-tert-butyl-benzoylamino)-4-methyl-thiazole-5-carboxylic acid ((1S,2S)-2-benzyloxycyclopent-1-yl) amide] |  | 64 | 
COc1cc(CNC(=O)c2sc(Nc3ccc(Br)cc3)nc2C)cc(OC)c1 [Compound 65, 2-(4-bromo-phenylamino)-4-methyl-thiazole-5-carboxylic acid 3,5-dimethoxy-benzylamide] | 1.63 |  | 
Cc1nc(Nc2ccc(Br)cc2)sc1C(=O)NCc1cccc2ccccc12 [Compound 56, 2-(4-bromo-phenylamino)-4-methyl-thiazole-5-carboxylic acid (naphtalen-1-yl-methyl)-amide] | 7.04 |  | IC50 [3]: 7.04 µM
COc1ccccc1Nc1nc(C)c(C(=O)N[C@@H](C)c2ccc3ccccc3c2)s1 [Compound 55, 2-(2-methoxy-phenylamino)-4-methyl-thiazole-5-carboxylic acid (S)-1-(2-naphtalen-2-yl-ethyl)-amide] | 10.2 |  | 
Cc1nc(Nc2ccc(Cl)cc2)sc1C(=O)N[C@@H]1CCC[C@H]1OCc1ccccc1 [Compound 30, 2-(4-chloro-phenylamino)-4-methyl-thiazole-5-carboxylic acid (1R,2R)-2-(benzyloxycyclopent-1-yl) amide] | 11 |  | IC50 [3]: 11 µM
COc1ccc(CNC(=O)c2sc(Nc3ccc(Br)cc3)nc2C)cc1 [Compound 60, 2-(4-bromo-phenylamino)-4-methyl-thiazole-5-carboxylic acid 4-methoxy-benzylamide] | 3 |  | 
COc1ccccc1Nc1nc(C)c(C(=O)NCc2ccc3c(c2)CCO3)s1 [Compound 104, 2-(2-methoxy-phenylamino)-4-methyl-thiazole-5-carboxylic acid (2,3-dihydro-benzofuran-5-ylmethyl)-amide] |  | 43 | 
Cc1nc(Nc2ccc3occc3c2)sc1C(=O)N[C@H]1CCC[C@@H]1OCc1ccccc1 [Compound 126, 2-(benzofuran-5-ylamino)-4-methyl-thiazole-5-carboxylic acid ((1S,2S)-2-benzyloxycyclopent-1-yl) amide] |  |  | hERG (at 1 μM): 74 at1 μM
Cc1nc(Nc2ccc(Br)cc2)sc1C(=O)NCc1ccc(F)c(C(F)(F)F)c1 [Compound 63, 2-(4-bromo-phenylamino)-4-methyl-thiazole-5-carboxylic acid 4-fluoro-3-trifluoromethyl-benzylamide] | 5.29 |  | 
COc1ccccc1Nc1nc(C)c(C(=O)NCc2ccccc2SC)s1 [Compound 97] |  | 55 | 
Cc1nc(Nc2ccc(Br)cc2)sc1C(=O)N[C@H](C)c1ccc2ccccc2c1 [Compound 19, 2-(4-bromo-phenylamino)-4-methyl-thiazole-5-carboxylic acid (R)-1-(naphthalen-2-yl)ethyl amide] | 90 |  | 
COc1ccccc1Nc1nccc(C(=O)N[C@H]2CCC[C@@H]2OCc2ccccc2)n1 [Compound 76, 2-(2-methoxy-phenylamino)-pyrimidine-4-carboxylic acid ((1S,2S)-2-benzyloxycyclopent-1-yl) amide] |  | 34 | 
Cc1nc(Nc2cccc3ccccc23)sc1C(=O)N[C@H]1CCC[C@@H]1OCc1ccccc1 [Compound 93] |  | 59 | 

From US20080125432A1 (Devgen NV, priority 2004, published 2008)
